Tests used:
common chickweed = assay: Test F pre-/postemergence herbicide test; assay type: in vivo, Stellaria media
Description: (§1) Seeds of plant species selected from annual blugrass (Poa annua L.), blackgrass (Alopecurus myosuroides Huds.), catchweed bedstraw (Gallium aparine L.), common chickweed (Stellaria media (L.) Vill./Cyr.), downy bromegrass (Bromus tectorum L.), green foxtail (Setaria viridis (L.) Beauv.), Italian ryegrass (Lolium multiflorum Lam.), kochia (Kochia scoparia (L.). Schrad.), lambsquarters (Chenopodium album L.), littleseed canarygrass (Phalaris minor Retz.), pigweed (Amaranthus retroflexus L.), Russian thistle (Salsola kali L. ssp. Ruthenica (Iljin) Soo), wild buckwheat (Polygonum convolvulus L.), wild mustard (Sinapis arvensis L.), wild oat (Avena fatua L.), windgrass (Apera spica-venti (L.) Beauv.), winter barley (Hordeum vulgare L.), and wheat (Triticum aestivum L.) were planted and treated preemergence with test chemicals formulated in a non-phytotoxic solvent mixture which included a surfactant.
(§2) At the same time, plants selected from these crop and weed species were treated with postemergence applications of some of the test chemicals formulated in the same manner. Plants ranged in height from 2 to 18 cm (1- to 4-leaf stage) for postemergence treatments. Treated plants and controls were maintained in a greenhouse for 12 to 14 days, after which time all species were compared to controls and visually evaluated. Plant response ratings, summarized in Table F, are based on a scale of 0 to 100 where 0 is no effect and 100 is complete control. A dash (-) response means no test result.

winter barley = assay: Test F pre-/postemergence herbicide test; assay type: in vivo, Hordeum vulgare
Description: as §1, §2

wild oat = assay: Test F pre-/postemergence herbicide test; assay type: in vivo, Avena fatua
Description: as §1, §2

downy bromegrass = assay: Test F pre-/postemergence herbicide test; assay type: in vivo, Bromus tectorum
Description: as §1, §2

wheat cv. Retical = assay: Test H safening on wheat by naphthalic anhydride seed treatment, pre-/postemergence; assay type: in vivo, Triticum aestivum; design: key to Response of wheat, Without naphthalic anhydride seed treatment: 0 = no effect, 100 = complete plant death, vs untreated control
Experimental: This test evaluated the safening of compounds of the invention on wheat (Triticum aestivumL.) cv. ‘Retical’ by seed treatment with naphthalic anhydride. Some of the wheat seed was treated with napthalic anhydride as a 1% by weight seed dressing. The wheat seed were planted in pots containing pasteurized Sassafras sandy loam soil. For postemergence testing the plants were grown 8 days to the 2-leaf stage at time of treatment. Preemergence treatments were applied the same day that the seeds were planted. Treatments were applied by spraying the test compounds formulated in a non-phytotoxic solvent mixture, using a flat fan nozzle and a spray volume of 280 L/ha. The preemergence treatments were triply replicated and the results subsequently averaged. The pots were placed on a growth chamber bench using a complete randomized block design for the preemergence test except for the first replicate, which was unrandomized. The plants were grown in the growth chamber and watered as needed with a dilute nutrient solution containing 200 ppm of N. Illumination was provided by fluorescent lamps giving 200-300 μE/m^2/S of photosynthetically active radiation over a 14-hour photoperiod. The temperature was maintained at 23±2° C. during the day and 17±2° C. at night. The effects of the treatments were rated 25 days after preemergence treatment and 14 days after postemergence treatment. The plant response was visually rated in comparison to untreated controls using a scale of 0 to 100, with 0 representing no effect and 100 representing complete plant death. The results for the compounds tested preemergence are listed in Table H1, and the results for the compounds tested postemergence are listed in Table H2.

giant foxtail (SETFA) = assay: Test J Compounds 2 and 6 alone and in combination with other herbicides, foliage spray; assay type: in vivo, Setaria faberi; design: key: 0 = no effect, 100 = complete control; settings: applied alone
Description: Seeds of test plants consisting of barnyardgrass (ECHCG; Echinochloa crus-galli (L.) Beauv.), blackgrass (ALOMY; Alopecurus myosuroides Huds.), Surinam grass (BRADC; Urochloa decumbens (Staph) R. D. Webster, previously named Brachiaria decumbens Stapf), cocklebur (XANST, Xanthium strumarium L.), corn (ZEAMD, Zea mays L. cv. ‘Pioneer 33G26’), large crabgrass (DIGSA, Digitaria sanguinalis (L.) Scop.), giant foxtail (SETFA, Setaria faberi Herrm.), lambsquarters (CHEAL, Chenopodium album L.), morningglory (IPOCO, Ipomoea coccinea L.), pigweed (AMARE, Amaranthus retroflexus L.), velvetleaf (ABUTH, Abutilon theophrasti Medik.) wheat (TRZAS, Triticum aestivum L. cv. ‘Recital’) and wild oat (AVEFA, Avena fatua L.) were planted in Redi-Earth® planting medium (Scotts Company, 14111 Scottslawn Road, Marysville, Ohio 43041) comprising spaghnum peat moss and vermiculite. Seeds of small-seeded species were planted about 1 cm deep; larger seeds were planted about 2.5 cm deep. Plants were grown in a greenhouse using supplemental lighting to maintain a photoperiod of about 14 hours; daytime and nighttime temperatures were about 24-30° C. and 22-25° C., respectively. Balanced fertilizer was applied through the watering system. […] Also listed in Table J are the expected effects for the mixtures calculated using Colby's Equation.

`CCn1nc(C(C)(C)C)cc1C(=O)Nc1cc(C(=O)OC(C)C)c(F)cc1F` [Compound 248] was tested, and the “Plant response rating (0-100), Chickweed” value (common chickweed; Postemergence, 31 g ai/ha) was 65, the “Plant response rating (0-100), Chickweed” value (common chickweed; Postemergence, 62 g ai/ha) was 65 and the “Plant response rating (0-100), Chickweed” value (common chickweed; Postemergence, 125 g ai/ha) was 98. The “Plant response rating (0-100), Chickweed” value (common chickweed; Postemergence, 250 g ai/ha) was 100, the “Plant response rating (0-100), Chickweed” value (common chickweed; Preemergence, 31 g ai/ha) was 100 and the “Plant response rating (0-100), Chickweed” value (common chickweed; Preemergence, 62 g ai/ha) was 100. For the same compound, the “Plant response rating (0-100), Chickweed” value (common chickweed; Preemergence, 125 g ai/ha) was 100, the “Plant response rating (0-100), Chickweed” value (common chickweed; Preemergence, 250 g ai/ha) was 100 and the “Plant response rating (0-100), Barley, Winter” value (shortened to “Plant response rating … Winter”) (winter barley; Postemergence, 31 g ai/ha) was 25. For the same compound, the “Plant response rating … Winter” value (winter barley; Postemergence, 62 g ai/ha) was 30, the “Plant response rating … Winter” value (winter barley; Postemergence, 125 g ai/ha) was 30 and the “Plant response rating … Winter” value (winter barley; Postemergence, 250 g ai/ha) was 40. For the same compound, the “Plant response rating … Winter” value (winter barley; Preemergence, 31 g ai/ha) was 0, the “Plant response rating … Winter” value (winter barley; Preemergence, 62 g ai/ha) was 0 and the “Plant response rating … Winter” value (winter barley; Preemergence, 125 g ai/ha) was 0. The “Plant response rating … Winter” value (winter barley; Preemergence, 250 g ai/ha) was 35, the “Plant response rating (0-100), Oat, Wild” value (wild oat; Postemergence, 31 g ai/ha) was 45 and the “Plant response rating (0-100), Oat, Wild” value (wild oat; Postemergence, 62 g ai/ha) was 45. The “Plant response rating (0-100), Oat, Wild” value (wild oat; Postemergence, 125 g ai/ha) was 60, the “Plant response rating (0-100), Oat, Wild” value (wild oat; Postemergence, 250 g ai/ha) was 65 and the “Plant response rating (0-100), Oat, Wild” value (wild oat; Preemergence, 31 g ai/ha) was 40. For the same compound, the “Plant response rating (0-100), Oat, Wild” value (wild oat; Preemergence, 62 g ai/ha) was 45, the “Plant response rating (0-100), Oat, Wild” value (wild oat; Preemergence, 125 g ai/ha) was 50 and the “Plant response rating (0-100), Oat, Wild” value (wild oat; Preemergence, 250 g ai/ha) was 65. The “Plant response rating (0-100), Bromegrass, Downy” value (from here on “Plant response rating … Downy”) (downy bromegrass; Postemergence, 31 g ai/ha) was 40, the “Plant response rating … Downy” value (downy bromegrass; Postemergence, 62 g ai/ha) was 40 and the “Plant response rating … Downy” value (downy bromegrass; Postemergence, 125 g ai/ha) was 40. For the same compound, the “Plant response rating … Downy” value (downy bromegrass; Postemergence, 250 g ai/ha) was 40, the “Plant response rating … Downy” value (downy bromegrass; Preemergence, 31 g ai/ha) was 35 and the “Plant response rating … Downy” value (downy bromegrass; Preemergence, 62 g ai/ha) was 45. For the same compound, the “Plant response rating … Downy” value (downy bromegrass; Preemergence, 125 g ai/ha) was 50 and the “Plant response rating … Downy” value (downy bromegrass; Preemergence, 250 g ai/ha) was 65.
In the case of `CCn1nc(C(C)(C)C)cc1C(=O)Nc1cc(C(=O)N(C)C)ccc1F` [Compound 6, N-[5-[(dimethylamino)carbonyl]-2-fluorophenyl]-3-(1,1-dimethylethyl)-1-ethyl-1H-pyrazole-5-carboxamide], the “Response of wheat, With 1% naphthalic anhydride seed treatment” value (wheat cv. Retical; postemergence, 62 g a.i./ha) is reported as 65, the “Response of wheat, Without naphthalic anhydride seed treatment” value (wheat cv. Retical; postemergence, 62 g a.i./ha) is reported as 75 and the “Response of wheat, With 1% naphthalic anhydride seed treatment” value (wheat cv. Retical; postemergence, 125 g a.i./ha) is reported as 75. For the same compound, the “Response of wheat, Without naphthalic anhydride seed treatment” value (wheat cv. Retical; postemergence, 125 g a.i./ha) was 75, the “Response of wheat, With 1% naphthalic anhydride seed treatment” value (wheat cv. Retical; preemergence, 62 g a.i./ha) was 77 and the “Response of wheat, Without naphthalic anhydride seed treatment” value (wheat cv. Retical; preemergence, 62 g a.i./ha) was 99. For the same compound, the “Response of wheat, With 1% naphthalic anhydride seed treatment” value (wheat cv. Retical; preemergence, 125 g a.i./ha) was 100, the “Response of wheat, Without naphthalic anhydride seed treatment” value (wheat cv. Retical; preemergence, 125 g a.i./ha) was 100 and the “SETFA Obsd.” value (giant foxtail (SETFA); 62 g a.i./ha) was 15. For the same compound, the “SETFA Obsd.” value (giant foxtail (SETFA); 125 g a.i./ha) was 33.
